{"source": "patent US7723468B2", "about": "“Antimicrobial peptide, compositions, and uses therefor” (De Sao Paulo Universida de, priority 2000, dated 2010)", "format_in_all_cases": "cell-based", "key": {"[1]": {"tested_on": "Leishmania (leishmania) amazonensis (MRPO/BR/72/M 1841-LV-79)", "test": "Anti-parasitic activity, MTT cell viability test (FIG. 4)", "settings": "incubation one hour at 22° C., 0.1 to 100 μM", "method": "(§1) As an example of anti-parasitic activity, the cell viability of Leishmania (leishmania) amazonensis (MRPO/BR/72/M 1841-LV-79) and Trypanosoma cruzi were evaluated, by making use of the MTT [3-(4,5-dimethyltiazolyl-2)-2,5-diphenyl tetrazolio bromide] test as described in J. Immunol. Methods 65, 55-63 (1983) and adapted for Leishmania spp, according to J. Immunol. Methods 127, 11-18 (1990).\n(§2) Quantities from 0.1 to 100 μM were tested against Leishmania (leishmania) amazonensis and Trypanosoma cruzi. […] The death of parasites (%) was measured by making use of the MTT assay as described in J. Immunol. Methods 65, 55-63 (1983) and adapted for Leishmania spp, according to J. Immunol. Methods 127, 11-18 (1990)."}, "Trypanosoma cruzi": {"tested_on": "Trypanosoma cruzi", "test": "Anti-parasitic activity, MTT cell viability test (FIG. 4)", "settings": "incubation one hour at 22° C., 0.1 to 100 μM", "method": "as §1, §2"}, "[2]": {"tested_on": "bacteria, fungi and yeast", "test": "Liquid growth inhibition assay, MIC activity spectrum (FIG. 1)", "method": "The active fraction against the tested bacterium Micrococcus luteus of hemocytes (AGH2) is additionally purified by filtration chromatography. Elution is made under isocratic conditions with 30% acetonitrile in acidic water at a flow rate of 0.4 ml/min. HPLC (high performance liquid chromatography) purification was made at room temperature. The effluent column was monitored for its absorbance at 225 nm. Fractions corresponding to absorbance peaks were collected, concentrated under vacuum and reconstituted in MilliQ water. Anti-bacterial activity of the collected fractions was monitored by a liquid growth inhibition assay according to J. Biol. Chem., 268, 14893-14897 (1993), using Micrococcus luteus as the test microorganism.\n(§3) The evaluation of activity against bacteria and fungi was done as described in J. Biol. Chem., 271, 29537-29544 (1996).\nOn FIG. 1, n.d. means “non-detected” for the tested concentration range of up to 100 μM for gomesin, while n.m. means not measured. The minimal inhibitory concentrations (MICs) of synthetic peptides are expressed as the [A]-[B] interval of concentrations, where [A] is the highest concentration tested at which the microorganisms are growing and [B] is the lowest concentration that causes 100% growth inhibition. […]"}, "[3]": {"tested_on": "Gram-positive and Gram-negative bacteria and yeast", "test": "Antimicrobial activity of head-to-tail cyclic gomesin, same growth inhibition assay (FIG. 3)", "settings": "tested Gram-positive and Gram-negative bacteria and yeast", "method": "as §3\nOn FIG. 1, n.d. means “non-detected” for the tested concentration range of up to 100 μM for gomesin, while n.m. means not measured. The minimal inhibitory concentrations (MICs) of synthetic peptides are expressed as the [A]-[B] interval of concentrations, where [A] is the highest concentration tested at which the microorganisms are growing and [B] is the lowest concentration that causes 100% growth inhibition.\nThe antimicrobial activity of the head-to-tail cyclic gomesin peptide (SEQ ID No 3) was evaluated using the same assay described above."}}, "note": "Bridges are numbered along the chain shown (N, C = ends)."}
{"substance": "ZCRRLCYKQRCVTYCRGRa [gomesin]", "values": [{"measurement": "viability of parasites (death of parasites, %)", "setting": "[1]", "value": "dependent on the concentration of gomesin"}, {"measurement": "viability of parasites (death of parasites, %)", "setting": "Trypanosoma cruzi", "value": "dependent on the concentration of gomesin"}, {"measurement": "MIC (minimum inhibitory concentration)", "setting": "[2]; for half of the 24 susceptible strains", "value": "≤ 1.6", "unit": "µM"}, {"measurement": "strains susceptible to gomesin", "setting": "[2]; out of the 27 strains tested, concentration range up to 100 μM", "value": 24, "unit": "strains"}]}
{"substance": "QCRRLCYKQRCVTYCRGR (cyclo(QCRRLCYKQRCVTYCRGR); disulfide 6-11, 2-15; SMILES CC(C)C[C@@H]1NC(=O)[C@H](CCCNC(=N)N)NC(=O)[C@H](CCCNC(=N)N)NC(=O)[C@@H]2CSSC[C@H](NC(=O)[C@H](Cc3ccc(O)cc3)NC(=O)[C@H]([C@@H](C)O)NC(=O)[C@H](C(C)C)NC(=O)[C@@H]3CSSC[C@H](NC1=O)C(=O)N[C@@H](Cc1ccc(O)cc1)C(=O)N[C@@H](CCCCN)C(=O)N[C@@H](CCC(N)=O)C(=O)N[C@@H](CCCNC(=N)N)C(=O)N3)C(=O)N[C@@H](CCCNC(=N)N)C(=O)NCC(=O)N[C@@H](CCCNC(=N)N)C(=O)N[C@@H](CCC(N)=O)C(=O)N2) [head-to-tail cyclic gomesin, gomesin with closed ends]", "values": [{"measurement": "antimicrobial activity compared with native gomesin", "setting": "[3]", "value": "identical to the activity of native gomesin"}]}
